According to PubChem BioAssay (NCI):
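Interpolation was linear, between the two tested concentrations surrounding the appropriate level; five concentrations were tested over 48 hours in 96-well plates. GI50 is the concentration that inhibits growth by half. At the TGI there is no net growth.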

Tests used:
Assay in all cases: NCI tumour cell line growth inhibition, 48 h
M14 melanoma = tested on: M14 melanoma
HT29 colon = tested on: HT29 colon
SW-620 colon = tested on: SW-620 colon
CCRF-CEM leukemia = tested on: CCRF-CEM leukemia
OVCAR-5 ovarian = tested on: OVCAR-5 ovarian
HOP-92 NSCLC = tested on: HOP-92 NSCLC
COLO 205 colon = tested on: COLO 205 colon
SF-295 CNS = tested on: SF-295 CNS
NCI-H522 lung = tested on: NCI-H522 lung
NCI-H23 lung = tested on: NCI-H23 lung
ACHN renal = tested on: ACHN renal
UACC-62 melanoma = tested on: UACC-62 melanoma
SF-539 CNS = tested on: SF-539 CNS
HOP-62 NSCLC = tested on: HOP-62 NSCLC
LOX IMVI melanoma = tested on: LOX IMVI melanoma
HCT-116 colon = tested on: HCT-116 colon
HS 578T breast = tested on: HS 578T breast
NCI-H460 lung = tested on: NCI-H460 lung
UACC-257 melanoma = tested on: UACC-257 melanoma
U251 CNS = tested on: U251 CNS
MDA-MB-435 = tested on: MDA-MB-435
OVCAR-8 ovarian = tested on: OVCAR-8 ovarian
SK-MEL-5 melanoma = tested on: SK-MEL-5 melanoma
OVCAR-4 ovarian = tested on: OVCAR-4 ovarian
KM12 colon = tested on: KM12 colon
K-562 leukemia = tested on: K-562 leukemia
SF-268 CNS = tested on: SF-268 CNS
A498 renal = tested on: A498 renal
IGROV1 ovarian = tested on: IGROV1 ovarian
A549 NSCLC = tested on: A549 NSCLC
DU-145 prostate = tested on: DU-145 prostate
RXF 393 renal = tested on: RXF 393 renal
786-0 renal = tested on: 786-0 renal
UO-31 renal = tested on: UO-31 renal
T-47D breast = tested on: T-47D breast
HCC-2998 colon = tested on: HCC-2998 colon
MCF7 breast = tested on: MCF7 breast
TK-10 renal = tested on: TK-10 renal
MOLT-4 leukemia = tested on: MOLT-4 leukemia
HL-60(TB) leukemia = tested on: HL-60(TB) leukemia
PC-3 prostate = tested on: PC-3 prostate
SN12C renal = tested on: SN12C renal
SK-MEL-2 melanoma = tested on: SK-MEL-2 melanoma
CAKI-1 renal = tested on: CAKI-1 renal
SNB-19 CNS = tested on: SNB-19 CNS
MALME-3M melanoma = tested on: MALME-3M melanoma
NCI/ADR-RES ovarian = tested on: NCI/ADR-RES ovarian
SK-MEL-28 melanoma = tested on: SK-MEL-28 melanoma
OVCAR-3 ovarian = tested on: OVCAR-3 ovarian
BT-549 breast = tested on: BT-549 breast
NCI-H226 lung = tested on: NCI-H226 lung
EKVX NSCLC = tested on: EKVX NSCLC
SK-OV-3 ovarian = tested on: SK-OV-3 ovarian
HCT-15 colon = tested on: HCT-15 colon
SR leukemia = tested on: SR leukemia
SNB-75 CNS = tested on: SNB-75 CNS
MDA-MB-231 breast = tested on: MDA-MB-231 breast

Cc1ccc(/C(=C/C=C(C#N)C#N)Sc2ccccn2)cc1
GI50 (M14 melanoma): 2.69 µM | TGI (M14 melanoma): 6.29 µM | GI50 (HT29 colon): 2.89 µM | TGI (HT29 colon): 8.41 µM | GI50 (SW-620 colon): 0.474 µM | TGI (SW-620 colon): 1.96 µM | GI50 (CCRF-CEM leukemia): 0.168 µM | TGI (CCRF-CEM leukemia): 0.575 µM | GI50 (OVCAR-5 ovarian): 4.13 µM | TGI (OVCAR-5 ovarian): 13.9 µM | GI50 (HOP-92 NSCLC): 12.6 µM | TGI (HOP-92 NSCLC): 31.7 µM | GI50 (COLO 205 colon): 1.72 µM | TGI (COLO 205 colon): 3.79 µM | GI50 (SF-295 CNS): 8.72 µM | TGI (SF-295 CNS): 22.8 µM | GI50 (NCI-H522 lung): 6.49 µM | TGI (NCI-H522 lung): 19.6 µM | GI50 (NCI-H23 lung): 3.68 µM | TGI (NCI-H23 lung): 10.9 µM | GI50 (ACHN renal): 1.83 µM | TGI (ACHN renal): 3.52 µM | GI50 (UACC-62 melanoma): 2.51 µM | TGI (UACC-62 melanoma): 7.23 µM | GI50 (SF-539 CNS): 2.08 µM | TGI (SF-539 CNS): 6.44 µM | GI50 (HOP-62 NSCLC): 6.5 µM | TGI (HOP-62 NSCLC): 18 µM | GI50 (LOX IMVI melanoma): 1.83 µM | TGI (LOX IMVI melanoma): 4.05 µM | GI50 (HCT-116 colon): 2.35 µM | TGI (HCT-116 colon): 5.71 µM | GI50 (HS 578T breast): 2.46 µM | TGI (HS 578T breast): 8.32 µM | GI50 (NCI-H460 lung): 4.62 µM | TGI (NCI-H460 lung): 21 µM | GI50 (UACC-257 melanoma): 14.6 µM | TGI (UACC-257 melanoma): 28.1 µM | GI50 (U251 CNS): 5.02 µM | TGI (U251 CNS): 20.3 µM | GI50 (MDA-MB-435): 4.79 µM | TGI (MDA-MB-435): 13.3 µM | GI50 (OVCAR-8 ovarian): 7.41 µM | TGI (OVCAR-8 ovarian): 24.3 µM | GI50 (SK-MEL-5 melanoma): 2.51 µM | TGI (SK-MEL-5 melanoma): 7.55 µM | GI50 (OVCAR-4 ovarian): 3.01 µM | TGI (OVCAR-4 ovarian): 11.6 µM | GI50 (KM12 colon): 3.33 µM | TGI (KM12 colon): 20.2 µM | GI50 (K-562 leukemia): 1.55 µM | TGI (K-562 leukemia): 10.8 µM | GI50 (SF-268 CNS): 3.37 µM | TGI (SF-268 CNS): 12.3 µM | GI50 (A498 renal): 11.6 µM | TGI (A498 renal): 24 µM | GI50 (IGROV1 ovarian): 4.79 µM | TGI (IGROV1 ovarian): 17.4 µM | GI50 (A549 NSCLC): 12.3 µM | TGI (A549 NSCLC): 31.8 µM | GI50 (DU-145 prostate): 2.28 µM | TGI (DU-145 prostate): 6.06 µM | GI50 (RXF 393 renal): 15.6 µM | TGI (RXF 393 renal): > 28.1 µM | GI50 (786-0 renal): 2.15 µM | TGI (786-0 renal): 5.64 µM | GI50 (UO-31 renal): 3.21 µM | GI50 (T-47D breast): 4 µM | TGI (T-47D breast): > 24.7 µM | GI50 (HCC-2998 colon): 3.85 µM | TGI (HCC-2998 colon): 8.84 µM | GI50 (MCF7 breast): 4.62 µM | TGI (MCF7 breast): 36 µM | GI50 (TK-10 renal): 3.02 µM | TGI (TK-10 renal): 12.1 µM | GI50 (MOLT-4 leukemia): 2.01 µM | TGI (MOLT-4 leukemia): 6.32 µM | GI50 (HL-60(TB) leukemia): 0.328 µM | TGI (HL-60(TB) leukemia): 3.72 µM | GI50 (PC-3 prostate): 4.65 µM | TGI (PC-3 prostate): > 20.5 µM | GI50 (SN12C renal): 1.91 µM | TGI (SN12C renal): 4.72 µM | GI50 (SK-MEL-2 melanoma): 7.15 µM | TGI (SK-MEL-2 melanoma): 35.6 µM | GI50 (CAKI-1 renal): 5.62 µM | TGI (CAKI-1 renal): 11.8 µM | GI50 (SNB-19 CNS): 10.1 µM | TGI (SNB-19 CNS): > 45.5 µM | GI50 (MALME-3M melanoma): 4.09 µM | TGI (MALME-3M melanoma): 17.3 µM | GI50 (NCI/ADR-RES ovarian): 4.63 µM | TGI (NCI/ADR-RES ovarian): 13.2 µM | GI50 (SK-MEL-28 melanoma): 2.08 µM | TGI (SK-MEL-28 melanoma): 4.51 µM | GI50 (OVCAR-3 ovarian): 2.09 µM | TGI (OVCAR-3 ovarian): 8.25 µM | GI50 (BT-549 breast): 2.59 µM | TGI (BT-549 breast): 6.85 µM | GI50 (NCI-H226 lung): 2.53 µM | TGI (NCI-H226 lung): 7.06 µM | GI50 (EKVX NSCLC): 14.6 µM | TGI (EKVX NSCLC): 31.1 µM | GI50 (SK-OV-3 ovarian): 19.6 µM | TGI (SK-OV-3 ovarian): 65.8 µM | GI50 (HCT-15 colon): 4.09 µM | TGI (HCT-15 colon): 15.8 µM | GI50 (SR leukemia): 3.06 µM | TGI (SR leukemia): 10.4 µM | GI50 (SNB-75 CNS): 5.18 µM | TGI (SNB-75 CNS): 18.4 µM | GI50 (MDA-MB-231 breast): 2.3 µM | TGI (MDA-MB-231 breast): 7.45 µM
